Measurements as given in the NIST ThermoML archive (doi:10.1016/j.jct.2016.10.034).

Experiment: xn = mol fraction of the nth substance listed
Settings: 100 kPa, Liquid; for viscosity: Falling or rolling sphere viscometry; for mass density: Vibrating tube method

CC[N+]1(C)CCCC1.O=C([O-])CO [1-ethyl-1-methylpyrrolidinium glycolate] + O
Settings	mass density [kg/m3]	viscosity [mPa·s]
298.15 K, x1 = 0.0541	1057.7	–
298.15 K, x1 = 0.1293	1100.6	11.8
298.15 K, x1 = 0.2024	1118.3	25.2
298.15 K, x1 = 0.2905	1127.2	46.2
298.15 K, x1 = 0.3464	1130	61.1
298.15 K, x1 = 0.4258	1132.3	84
298.15 K, x1 = 0.5357	1133.9	119
298.15 K, x1 = 0.6086	1134.3	145
298.15 K, x1 = 0.729	1134.7	195
298.15 K, x1 = 0.825	1134.5	241
298.15 K, x1 = 0.8839	1134.3	271
303.15 K, x1 = 0.0541	1055.1	–
303.15 K, x1 = 0.1293	1097.2	9.63
303.15 K, x1 = 0.2024	1114.7	19.9
303.15 K, x1 = 0.2905	1123.6	37.2
303.15 K, x1 = 0.3464	1126.5	48.2
303.15 K, x1 = 0.4258	1128.8	65
303.15 K, x1 = 0.5357	1130.4	90.6
303.15 K, x1 = 0.6086	1130.9	110
303.15 K, x1 = 0.729	1131.3	146
303.15 K, x1 = 0.825	1131.1	179
303.15 K, x1 = 0.8839	1130.9	200
308.15 K, x1 = 0.0541	1052.3	–
308.15 K, x1 = 0.1293	1093.7	8
308.15 K, x1 = 0.2024	1111.2	16.5
308.15 K, x1 = 0.2905	1120.1	30
308.15 K, x1 = 0.3464	1123	38.3
308.15 K, x1 = 0.4258	1125.4	51.4
308.15 K, x1 = 0.5357	1127	70.8
308.15 K, x1 = 0.6086	1127.5	85.4
308.15 K, x1 = 0.729	1127.9	112
308.15 K, x1 = 0.825	1127.7	137
308.15 K, x1 = 0.8839	1127.6	152
313.15 K, x1 = 0.0541	1049.5	–
313.15 K, x1 = 0.1293	1090.3	6.75
313.15 K, x1 = 0.2024	1107.6	13.5
313.15 K, x1 = 0.2905	1116.6	23.5
313.15 K, x1 = 0.3464	1119.5	30.5
313.15 K, x1 = 0.4258	1121.9	41.3
313.15 K, x1 = 0.5357	1123.6	56.4
313.15 K, x1 = 0.6086	1124.1	67.6
313.15 K, x1 = 0.729	1124.6	87.7
313.15 K, x1 = 0.825	1124.4	106
313.15 K, x1 = 0.8839	1124.3	119
318.15 K, x1 = 0.0541	1046.6	–
318.15 K, x1 = 0.1293	1086.8	5.69
318.15 K, x1 = 0.2024	1104	11.6
318.15 K, x1 = 0.2905	1113.1	20
318.15 K, x1 = 0.3464	1116	25.4
318.15 K, x1 = 0.4258	1118.5	33.8
318.15 K, x1 = 0.5357	1120.3	45.7
318.15 K, x1 = 0.6086	1120.8	54.2
318.15 K, x1 = 0.729	1121.3	70
318.15 K, x1 = 0.825	1121.1	83.6
318.15 K, x1 = 0.8839	1121	92.8
323.15 K, x1 = 0.0541	1043.7	–
323.15 K, x1 = 0.1293	1083.3	4.85
323.15 K, x1 = 0.2024	1100.4	9.82
323.15 K, x1 = 0.2905	1109.6	16.4
323.15 K, x1 = 0.3464	1112.6	20.9
323.15 K, x1 = 0.4258	1115.2	27.7
323.15 K, x1 = 0.5357	1116.9	37.5
323.15 K, x1 = 0.6086	1117.5	44.5
323.15 K, x1 = 0.729	1118	56.6
323.15 K, x1 = 0.825	1117.9	67
323.15 K, x1 = 0.8839	1117.7	74.6
328.15 K, x1 = 0.0541	1040.6	–
328.15 K, x1 = 0.1293	1079.8	4.34
328.15 K, x1 = 0.2024	1096.8	8.55
328.15 K, x1 = 0.2905	1106.1	13.9
328.15 K, x1 = 0.3464	1109.2	17.8
328.15 K, x1 = 0.4258	1111.8	23.3
328.15 K, x1 = 0.5357	1113.6	31.4
328.15 K, x1 = 0.6086	1114.2	37.2
328.15 K, x1 = 0.729	1114.8	46.8
328.15 K, x1 = 0.825	1114.6	55.7
328.15 K, x1 = 0.8839	1114.5	61.9
333.15 K, x1 = 0.0541	1037.5	–
333.15 K, x1 = 0.1293	1076.2	4.12
333.15 K, x1 = 0.2024	1093.3	7.54
333.15 K, x1 = 0.2905	1102.6	12.5
333.15 K, x1 = 0.3464	1105.7	15.5
333.15 K, x1 = 0.4258	1108.5	20
333.15 K, x1 = 0.5357	1110.4	26.5
333.15 K, x1 = 0.6086	1111	31.1
333.15 K, x1 = 0.729	1111.5	38.8
333.15 K, x1 = 0.825	1111.4	45.5
333.15 K, x1 = 0.8839	1111.3	49.9
338.15 K, x1 = 0.0541	1034.3	–
338.15 K, x1 = 0.1293	1072.7	3.87
338.15 K, x1 = 0.2024	1089.7	6.81
338.15 K, x1 = 0.2905	1099.2	10.6
338.15 K, x1 = 0.3464	1102.4	13.2
338.15 K, x1 = 0.4258	1105.1	16.8
338.15 K, x1 = 0.5357	1107.1	22.4
338.15 K, x1 = 0.6086	1107.7	26.1
338.15 K, x1 = 0.729	1108.3	32.6
338.15 K, x1 = 0.825	1108.3	38.1
338.15 K, x1 = 0.8839	1108.2	41.6
343.15 K, x1 = 0.0541	1031.1	–
343.15 K, x1 = 0.1293	1069.1	3.58
343.15 K, x1 = 0.2024	1086.1	5.96
343.15 K, x1 = 0.2905	1095.7	9.03
343.15 K, x1 = 0.3464	1099	11.2
343.15 K, x1 = 0.4258	1101.8	14.5
343.15 K, x1 = 0.5357	1103.9	19.2
343.15 K, x1 = 0.6086	1104.6	22.4
343.15 K, x1 = 0.729	1105.2	27.9
343.15 K, x1 = 0.825	1105.1	32.4
343.15 K, x1 = 0.8839	1105.1	35.3
348.15 K, x1 = 0.0541	1027.6	–
348.15 K, x1 = 0.1293	1065.5	3.55
348.15 K, x1 = 0.2024	1082.6	5.64
348.15 K, x1 = 0.2905	1092.9	7.83
348.15 K, x1 = 0.3464	1095.6	9.71
348.15 K, x1 = 0.4258	1098.6	12.5
348.15 K, x1 = 0.5357	1100.7	16.6
348.15 K, x1 = 0.6086	1101.4	19.3
348.15 K, x1 = 0.729	1102.1	24
348.15 K, x1 = 0.825	1102	27.7
348.15 K, x1 = 0.8839	1102	30.1
